The text below walks through data of US9789087B2, “PAR4 inhibitor therapy for patients with PAR4 polymorphism” (THOMAS JEFFERSON UNIVERSITY, priority 2015, dated 2017).

The structures appear in SMILES notation. Changes are numbered by the printed parent chain. “Also recorded” adds a separate entry of the source.

For one assay, the target named is T1, PAR1 (Homo sapiens, UniProt P25116).
T1 construct: endogenous in cells; host or cells: washed platelets of healthy human donors (cohort 2)
T1 sequence (P25116 22-425): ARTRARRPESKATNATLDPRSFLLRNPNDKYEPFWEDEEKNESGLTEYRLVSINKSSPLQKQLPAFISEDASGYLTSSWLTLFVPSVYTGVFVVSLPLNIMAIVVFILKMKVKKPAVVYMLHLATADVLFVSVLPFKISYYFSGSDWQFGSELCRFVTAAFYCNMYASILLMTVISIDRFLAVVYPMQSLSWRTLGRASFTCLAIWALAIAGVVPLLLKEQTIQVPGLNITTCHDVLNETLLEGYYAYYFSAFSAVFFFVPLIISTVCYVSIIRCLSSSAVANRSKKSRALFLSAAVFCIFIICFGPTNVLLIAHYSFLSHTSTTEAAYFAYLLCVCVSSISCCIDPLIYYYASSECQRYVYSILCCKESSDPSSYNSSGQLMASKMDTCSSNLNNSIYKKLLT
Nature of the assay: PAR1-AP-induced platelet aggregation, light transmission aggregometry. In kind it is cell-based. The settings on record: washed platelets, 5 μM PAR1-AP, FIG. 5A. Here is the method:
(§1) Platelets from donors genotyped for […] were washed, incubated with the indicated concentrations of vorapaxar (VPX) (FIGS. 5A, 5B) or YD-3 (FIG. 5C) and then stimulated with (FIG. 5A) 5 μM PAR1-AP or (FIGS. 5B, 5C) 100 μM PAR4-AP. Aggregation was measured using light transmission aggregometry. n=3 each genotype. Horizontal lines indicate mean. […] Craig Lindsley at Vanderbilt University) as previously described.^27 Aggregation was then quantified after stimulation with 5 μM PAR1-AP or 100 μM PAR4-AP.

The subject of assay [1] is PAR4. Nature of the assay: PAR4-AP-induced platelet aggregation, light transmission aggregometry, donors genotyped for rs773902. In kind it is cell-based, human. The settings on record: 100 μM PAR4-AP. Here is the method: as §1, with “FIGS. 5A-5C show PAR4 variants are differentially susceptible to pharmacological inhibition. Platelets” for “Platelets”, “mean. (P=0.02).” for “mean.”

The target of a further assay is T2, PAR4-Ala120 (Homo sapiens, UniProt Q96RI0).
T2 construct: endogenous in cells; host or cells: washed platelets of human donors homozygous for rs773902 G (Ala120)
T2 sequence (Q96RI0 18-385): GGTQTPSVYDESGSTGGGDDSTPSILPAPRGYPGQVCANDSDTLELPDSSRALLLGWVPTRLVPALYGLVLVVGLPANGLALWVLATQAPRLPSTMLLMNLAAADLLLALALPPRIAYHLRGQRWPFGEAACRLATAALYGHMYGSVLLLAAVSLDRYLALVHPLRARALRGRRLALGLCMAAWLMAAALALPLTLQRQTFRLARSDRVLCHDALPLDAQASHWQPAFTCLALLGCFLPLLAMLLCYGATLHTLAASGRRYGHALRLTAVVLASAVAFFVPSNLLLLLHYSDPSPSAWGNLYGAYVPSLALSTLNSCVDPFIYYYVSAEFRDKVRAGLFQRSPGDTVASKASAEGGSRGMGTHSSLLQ
In words: PAR4-AP-induced platelet aggregation, platelets of PAR4-Ala120 homozygotes. In kind it is cell-based. Particulars: 0.5 μM YD-3, 100 μM PAR4-AP, FIG. 5C. Here is the method: (§2) FIGS. 5A-5C show PAR4 variants are differentially susceptible to pharmacological inhibition. Platelets from donors genotyped for rs773902 were washed, incubated with the indicated concentrations of vorapaxar (VPX) (FIGS. 5A, 5B) or YD-3 (FIG. 5C) and then stimulated with (FIG. 5A) 5 μM PAR1-AP or (FIGS. 5B, 5C) 100 μM PAR4-AP. Aggregation was measured using light transmission aggregometry. n=3 each genotype. Horizontal lines indicate mean. (P=0.02).
(§3) Platelets were pre-incubated with the indicated concentrations of vorapaxar^26 (Axon Medchem, Reston, Va., USA) or YD-3 [1-benzyl-3-(ethoxycarbonylphenyl)-indazole]^7 (a gift from Dr. Craig Lindsley at Vanderbilt University) as previously described.^27 Aggregation was then quantified after stimulation with 5 μM PAR1-AP or 100 μM PAR4-AP.
(§4) Multiple linear regression analysis was performed including the PAR4 protein level and the risk SNPs as explanatory variables and PAR4 reactivity as the dependent variable. To determine fraction of variance of PAR4 reactivity explained by PAR4 protein levels and F2RL3 genotype, PAR4 protein level was brought into the model first followed by rs773902 genotype. To test for an interaction between rs773902 and YD-3, a linear regression was performed, using aggregation as the dependent variable and PAR4-AP concentration, YD3 concentration, and rs773902 genotype as […]. […]

For assay [2] the following is noted: oral, rat carotid balloon injury; cited from earlier work.
The next assay deals with T3, PAR4-Thr120 (Homo sapiens, UniProt Q96RI0, A120T).
T3 construct: endogenous in cells; host or cells: washed platelets of human donors homozygous for rs773902 A (Thr120)
T3 sequence (Q96RI0 18-385 A120T): T2 sequence (Q96RI0 18-385) with A103T
In words: PAR4-AP-induced platelet aggregation, platelets of PAR4-Thr120 homozygotes. In kind it is cell-based. Particulars: homozygous PAR4-Thr120, up to 1 μM YD-3, 100 μM PAR4-AP, FIG. 5C. Here is the method: as §2, §3, §4

In assay [3] the test system is platelets. Particulars: cited from earlier work.
The target of assay [4] is T4, PAR4 (Homo sapiens, UniProt Q96RI0).
T4 construct: host or cells: platelets (cited work)
T4 sequence (Q96RI0 18-385): T2 sequence (Q96RI0 18-385)
The settings on record: cited from earlier work.

A further assay deals with smooth muscle cell. The settings on record: cited from earlier work.
For assay [5], the system named is platelets. The settings on record: cited from earlier work. The source holds these as a separate data set.

Take `CCOC(=O)N[C@@H]1CC[C@@H]2[C@@H](C1)C[C@H]1C(=O)O[C@H](C)[C@H]1[C@H]2/C=C/c1ccc(-c2cccc(F)c2)cn1` [vorapaxar]: the “inhibition of platelet aggregation through PAR1” value at PAR1 is “efficiently inhibited”. In the assay with PAR4 [1] (washed platelets, regardless of rs773902 genotype, FIG. 5B), the “effect on PAR4-induced platelet aggregation” value was “no effect”.
With `CCOC(=O)c1ccc(-c2nn(Cc3ccccc3)c3ccccc23)cc1` [YD-3, ethyl 4-(1-benzyl-1H-indazol-3-yl)benzoate], the “inhibition of PAR4-induced platelet aggregation” value at PAR4-Ala120 was “inhibited”; on PAR4-Thr120, “resistant”; in the assay on PAR4 [1] (rs773902 heterozygotes, FIG. 5C), “intermediate response”. For the same compound, in assay [2], the intimal thickening entry is recorded as “attenuates”. Besides, in the assay with platelets [3], the “block of thrombin-induced platelet recruitment” value was “blocks”. The “block of PAR4-induced platelet aggregation” value on PAR4 [4] is given as “specifically blocks; also recorded: blocking”. In addition, the “block of thrombin-induced smooth muscle cell proliferation” value in the assay with smooth muscle cell is “blocks”. Further, the “block of neutrophil-induced platelet aggregation” value with platelets [5] is given as “blocks”.
